Laboratory results as given in paper PMC10002517, “Inhibition of Transglutaminase 2 as a Therapeutic Strategy in Celiac Disease—In Vitro Studies in Intestinal Cells and Duodenal Biopsies” (International Journal of Molecular Sciences, 2023).

Columns and labels:
[1] = target: T1, human transglutaminase 2 (TG2) (Homo sapiens, UniProt P21980); experiment: TG2-mediated cross-linking (transamidation) of pepsin-/trypsin-digested gliadin (PTG) on immobilized TG2; assay type: biochemical; details: for TG2-mediated cross-linking of PTG: 10 nM TG2 coated, 10 µg/mL PTG, 1 h 37 °C, normalized to TG2 without inhibitor, mean ± SD, n = 4
T1 construct: purchased Zedira, Darmstadt, Germany T034
T1 sequence (P21980 1-687): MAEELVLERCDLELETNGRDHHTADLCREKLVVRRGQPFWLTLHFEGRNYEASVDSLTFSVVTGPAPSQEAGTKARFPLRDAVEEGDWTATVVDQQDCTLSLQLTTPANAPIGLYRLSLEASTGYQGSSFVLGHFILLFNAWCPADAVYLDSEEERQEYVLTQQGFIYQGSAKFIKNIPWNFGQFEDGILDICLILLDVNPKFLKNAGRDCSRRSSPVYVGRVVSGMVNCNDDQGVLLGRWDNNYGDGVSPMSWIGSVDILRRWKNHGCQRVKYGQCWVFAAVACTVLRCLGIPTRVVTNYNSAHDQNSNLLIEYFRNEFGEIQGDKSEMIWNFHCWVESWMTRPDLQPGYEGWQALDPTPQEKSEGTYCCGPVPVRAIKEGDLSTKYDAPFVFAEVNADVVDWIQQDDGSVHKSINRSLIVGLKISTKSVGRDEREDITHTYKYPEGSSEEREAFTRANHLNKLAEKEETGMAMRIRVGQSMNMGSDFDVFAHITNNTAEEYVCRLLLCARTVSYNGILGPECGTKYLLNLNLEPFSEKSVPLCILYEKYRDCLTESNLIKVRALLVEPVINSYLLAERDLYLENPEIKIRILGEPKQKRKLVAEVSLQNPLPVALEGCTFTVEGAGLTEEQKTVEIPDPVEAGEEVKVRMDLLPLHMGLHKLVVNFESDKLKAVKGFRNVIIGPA
Experimental: A tissue-culture-treated 96-well plate (83.3924, Sarstedt, Nümbrecht, Germany) was coated for 1 h at 37°C with 10 nM TG2 (T034, Zedira, Darmstadt, Germany) in 50 mM Tris, 1 mM EDTA, 5 mM CaCl2 (pH 7.5) buffer containing 10 mM DTT. After three washes with PBS, the plate was blocked with 2% bovine serum albumin (BSA, Carl Roth GmbH, Karlsruhe, Germany) in PBS for 30 min at room temperature. Then, incubation with 10 µg/mL of pepsin-/trypsin-digested gliadin (PTG, T004, Zedira) ± inhibitors was performed for 1 h at 37 °C. After three washes with PBS, the primary antibody directed against gliadin (1:1000, clone XGY4, Zedira) was applied in BSA 2% at 4 °C overnight on an orbital shaker. The next day, the secondary antibody directed against mouse IgG (1:1000; sc-516102, Santa Cruz Biotechnology, Dallas, TX, USA) was incubated in BSA 2% for 1 h at room temperature on an orbital shaker. After three washes with phosphate buffered saline (PBS), the HRP-substrate TMB (tetramethylbenzidine, Sigma-Aldrich, Darmstadt, Germany) was added (100 µL per well). Photometric quantitation at 655 nm was performed after 15 min using a Clariostar Plus (BMG Labtech, Ortenberg, Germany) microplate reader.

[2] = target: T2, TG2 in the intestinal lamina propria (Homo sapiens, UniProt P21980); experiment: TG2 activity in cryosections of duodenal biopsies from CD patients (5BP, confocal microscopy); assay type: biochemical; details: 1 h before 5BP, mean ± SD, n = 6 patients
T2 construct: from tissue; host or cells: duodenal biopsies from celiac disease patients (unfixed 400 nm cryosections, lamina propria)
T2 sequence (P21980 1-687): T1 sequence (P21980 1-687)
Experimental: For immunofluorescence microscopic investigation of transglutaminase activity, only biopsies with minor macroscopic inflammatory signs were used. After endoscopy, biopsies were immediately washed three times in PBS and cryopreserved in polyvinylpyrrolidone sucrose at 4 °C overnight. Biopsies were mounted on specimen holders using Tissue-Tek O.C.T (Sakura Finetek, Staufen im Breisgau, Germany) compound and frozen in liquid nitrogen. For evaluation of transglutaminase activity by the post-embedding procedure, 400 nm cryosections were obtained using a cryo-ultramicrotome (Leica EM UC6, Leica, Wetzlar, Germany) and mounted on class cover slides. After three brief washes with PBS, tissue sections were incubated with the indicated concentrations of the inhibitors for 1 h in tris buffer. Then, the TG2 substrate 5BP was incubated for 1 h at 37 °C in tris buffer containing DTT at the indicated concentration. Slides were washed three times in PBS, fixed in 4% paraformaldehyde (10 min), permeabilized with 0.5% Triton (10 min) and incubated with blocking solution (0.1% cold water fish skin gelatin + 5% BSA + 5% goat serum, 10 min). Afterwards, a rabbit polyclonal antibody directed against human TG2 (Kan5, kindly provided by Dr T. Mothes, Institute of Laboratory Medicine, University Hospital Leipzig, Germany) was applied at 1:200 dilution in blocking solution overnight at 4 °C. After three washing steps (each 5 min) with PBS, Alexa Fluor-555-conjugated secondary antibody (goat-anti-rabbit, 1:200, Thermo Fisher Scientific) and Alexa Fluor-488-conjugated streptavidin (2 µg/mL, Thermo Fisher Scientific) were incubated at room temperature in the dark for 1 h. After three washes with PBS, samples were covered in ProLong Gold antifade mountant (Thermo Fisher Scientific) and sealed with clear nail polish. Sealed slides were stored in the dark at 4 °C until microscopy.
Imaging was done using a confocal laser scanning microscope (TE2000-E, Nikon, Langen, Germany) and a 60× Plan Apo (NA 1.41) immersion oil objective. The detailed acquisition settings and the corresponding macro (Image J [46]) for image processing can be accessed in the Supplementary Materials methods (S1). Five images per patient where quantified. For quantitation, mean fluorescence intensity of TG2 activity (488 nm channel) was normalized to TG2 expression (555 nm channel) within the intestinal lamina propria.

tumor cell lines = details: 10 µM; cited from earlier work
Experimental: To further examine the applicability of both substances, we analyzed their effect on the viability of Caco-2 cells. […] In those studies, however, viability was determined in tumor cell lines and not in differentiated int ...

[3] = given intravenously, clinical trials; rapid binding to plasma components; cited from earlier work
Text: This might be explained by rapid degradation or reduction of PX-12 by living cells. This is in line with observations in clinical trials, where PX-12 plasma levels were very low when given intravenously due to rapid binding to plasma components.

[4] = 100 µM inhibitor, untreated 0.94 ± 0.26 (ERW1041) or 0.91 ± 0.28 (PX-12)

| TG2-mediated cross-linking of PTG ([1]; 10 µM inhibitor) [%] | TG2-mediated cross-linking of PTG ([1]; 100 µM inhibitor) [%] | TG2 activity normalized against TG2 expression in the lamina propria ([2]; 1 µM inhibitor, untreated 0.94 ± 0.26) | TG2 activity normalized against TG2 expression in the lamina propria [2, 4] | reduction of enzymatic modification of gliadin ([1]; at 10 µM and 100 µM) | SMILES | cytotoxicity (tumor cell lines) | plasma levels [3] |
| --- | --- | --- | --- | --- | --- | --- | --- |
| 48 ± 8 | 11 ± 2 | 0.58 ± 0.27 | 0.31 ± 0.17 | – | O=C(NC[C@@H]1CC(Br)=NO1)[C@@H]1CCCN1C(=O)OCc1cnc2ccccc2c1 [ERW1041] | – | – |
| 15 ± 3 | 5 ± 1 | – | 0.44 ± 0.21 | more than 80% | CCC(C)SSc1ncc[nH]1 (stereo not shown) [PX-12, 2-[(1-methylpropyl)dithio]-1H-imidazole] | cytotoxic effects | very low |
